In patent publication US10584132B2, “SHMT inhibitors” (The Trustees of Princeton University, priority 2016, dated 2020):

Assays:
Liver microsome assay = type: in vitro ADME; details: pooled male mouse liver microsomes, 2 μM
Procedure: The following master solution was prepared before compound addition:
Two separate experiments were performed as follows: a) With Cofactors (NADPH and UDPGA): 40 μL of 10 mM NADPH and 40 μL of 20 mM UDPGA were added to the incubations. The final concentrations of microsomes, NADPH and UDPGA were 0.5 mg/mL, 1 mM and 2 mM, respectively. b) Without Cofactors (NADPH and UDPGA): 10 μL of 20 mg/mL liver microsomes and 80 μL of ultra-pure water were added to the incubations. The final concentration of microsomes was 0.5 mg/mL. The mixture was pre-warmed at 37° C. for 5 minutes.
The reaction was started with the addition of 4 μL of 200 μM control compound or test compound solution. Verapamil was used as positive control in this study. The final concentration of test compound or control compound was 2 μM. The incubation solution was incubated in water bath at 37° C. Aliquots of 50 μL were taken from the reaction solution at 0.5, 5, 15, 30, 45 and 60 minutes. The reaction was stopped by the addition of 5 volumes of cold acetonitrile with IS (100 nM alprazolam, 200 nM caffeine and 100 nM tolbutamide). Samples were centrifuged at 3,220 g for 40 minutes. Aliquot of 100 μL of the supernatant was mixed with 100 μL of ultra-pure H2O and then used for LC-MS/MS analysis. The in vitro half-life (in vitro t1/2) was determined from the slope value of the LC-MS signal of the test compound.

human SHMT2 = human SHMT2 (Homo sapiens (Human), UniProt P34897); assay: SHMT2 in vitro enzymatic assay (coupled with excess MTHFD2, NADH absorption at 340 nm); type: biochemical
human SHMT2, sequence (P34897 30-504): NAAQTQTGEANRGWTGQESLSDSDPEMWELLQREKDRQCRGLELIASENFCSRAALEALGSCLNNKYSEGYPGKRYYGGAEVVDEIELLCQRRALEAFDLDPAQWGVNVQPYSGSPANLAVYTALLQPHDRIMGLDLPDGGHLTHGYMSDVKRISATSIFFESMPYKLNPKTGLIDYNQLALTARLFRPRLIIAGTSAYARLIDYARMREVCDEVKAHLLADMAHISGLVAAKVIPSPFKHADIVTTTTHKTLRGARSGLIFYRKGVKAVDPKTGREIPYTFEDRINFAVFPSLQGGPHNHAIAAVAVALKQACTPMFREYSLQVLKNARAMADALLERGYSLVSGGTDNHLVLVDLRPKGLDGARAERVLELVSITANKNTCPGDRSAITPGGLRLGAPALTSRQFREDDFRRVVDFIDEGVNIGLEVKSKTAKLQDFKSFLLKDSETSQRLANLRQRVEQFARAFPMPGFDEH
Procedure: (§2) For the SHMT1 and SHMT2 in vitro enzymatic assays, the rate of 5,10-methylene tetrahydrofolate formation catalyzed by SHMT1/2 was indirectly evaluated by coupling with excess MTHFD2, which converts NAD+ to NADH allowing for reaction monitoring by absorption at 340 nm. […] Inhibition of initial reaction velocity was determined by adding various inhibitors at different concentrations and monitored as described. IC50 may be calculated based on this assay.

Su-DHL-4 cells [1] = assay: Growth of Su-DHL-4 cells in RPMI; type: cell-based, human; details: for cell growth (or death) over 48 h: Su-DHL-4, 5 μM
Procedure: Cells were stained with propidium iodide and FITC conjugated Annexin V. 10,000 events shown. […] All conditions included at least normal media glycine (10 mg/L) (mean±SD, n=3).
Co-culture with 1 mM formate restores nucleotide levels selectively in Jurkat cells (mean±SD, n=3-6). […] Note the low uptake in Su-DHL-4 cells (gly=glycine, GSH=glutathione) (mean±SD, n=3). […] The SHMT reaction makes two products, 5,10-methyleneTHF and glycine. When SHMT is inhibited, exogenous formate can be incorporated into the 1C cycle whereas in B-cells poor glycine uptake limits the ability of extracellular glycine to rescue. Strategies that further stress glycine availability augment the efficacy of SHMT inhibition.

HCT-116 WT cells = assay: Cell growth assay (resazurin), HCT-116 wild type, with or without formate; type: cell-based, human; details: for rescue of effects on cell growth by addition of formate: HCT-116, formate
Procedure: (§1) The described cell lines for Examples 8 and 9 are cultured in 96-well plates in Dulbecco's modified eagle media (DMEM) without pyruvate (CELLGRO) with 10% dialysed fetal bovine serum (Invitrogen) in 5% CO2 at 37° C. Approximately 2,500 cells are plated in each well in 90 uL of media. After 24 hours cells are treated with various concentrations of inhibitor (time=0 hours), with or without formate. Growth was assessed at multiple time points (time=0, 24, 48, 72 hours) through measurement of fluorescence at 595 nm (excitation at 535 nm) on a BioTek micro titer plate reader after incubation with resazurin (0.01 mg/mL for 1.5 hours). IC50 curves are generated from percent inhibition of growth at 72 hours.

Su-DHL-4 cells [2] = assay: Apoptosis by flow cytometry (Annexin V surface staining), Su-DHL-4; type: cell-based, human; details: for apoptotic fraction of cells: 24 hours
Source text: Apoptosis was enhanced by co-treatment with formate. In contrast, as expected, formate rescued Jurkat E6-1 leukemia cells from apoptosis (FIG. 11C). Without wishing to be bound by theory, it is hypothesized that the failure of formate to rescue growth in the DLBCL cell lines is due to a requirement for both glycine and 1C units made by SHMT in these cells. When glycine is limiting, formate can enhance the cytotoxicity of SHMT inhibition. […] Mechanistically, by supplying 5,10-methylene-THF, formate may drives residual SHMT enzymatic function in the […] direction.
In contrast, cell growth is further decreased in Su-DHL4 cells by addition of formate. This can be further exacerbated by removal of glycine from the media. […] Using flow cytometry, apoptosis of Su-DHL4 cells were studied with AnnexinV surface staining (FIGS. 12D and 12E).

8988T cells = assay: Growth of pancreatic cancer cell line 8988T; type: cell-based, human
LogP Value = type: physicochemical
human SHMT1 = human SHMT1 (Homo sapiens (Human), UniProt P34896); assay: SHMT1 in vitro enzymatic assay (coupled with excess MTHFD2, NADH absorption at 340 nm); type: biochemical
human SHMT1, sequence (P34896 whole entry): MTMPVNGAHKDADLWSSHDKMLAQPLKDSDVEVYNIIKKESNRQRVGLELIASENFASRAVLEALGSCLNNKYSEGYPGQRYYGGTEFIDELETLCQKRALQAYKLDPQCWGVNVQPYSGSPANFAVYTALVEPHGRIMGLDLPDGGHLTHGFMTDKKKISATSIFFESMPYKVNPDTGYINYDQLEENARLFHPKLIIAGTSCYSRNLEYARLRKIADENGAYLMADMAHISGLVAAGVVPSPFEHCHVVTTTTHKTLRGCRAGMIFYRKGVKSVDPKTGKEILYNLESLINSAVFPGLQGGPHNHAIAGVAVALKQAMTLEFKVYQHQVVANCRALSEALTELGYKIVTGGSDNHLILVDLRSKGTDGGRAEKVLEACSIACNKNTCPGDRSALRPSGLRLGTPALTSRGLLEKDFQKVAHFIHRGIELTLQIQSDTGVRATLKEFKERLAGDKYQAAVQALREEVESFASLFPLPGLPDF
Procedure: as §2

HCT-116 ΔSHMT2 cells = assay: Cell growth assay, HCT-116 SHMT2 deletion (knock-out) cells; type: cell-based, human
Procedure: as §1
Clonal deletion cell lines of SHMT1, SHMT2, and SHMT1/2 were generated from the human colorectal carcinoma cell line HCT-116. Paired Cas9 nickase (Cas9n) containing constructs that encoded single-guide RNA sequences targeting SHMT1 or 2 were transiently transfected into cells, and mutant colonies from single clones were picked as described in Ducker et al., (2016) Reversal of Cytosolic One-Carbon Flux Compensates for Loss of the Mitochondrial Folate Pathway, Cell Metab 23, 1140-1153. SHMT1 deletion had no effect on cell growth either in cell culture or as subcutaneous xenografts in nude mice. In contrast, SHMT2 deletion cells grew slower in culture and as xenografts (FIG. 8A).

## Cc1n[nH]c2c1C(c1cc(C#CCCCO)cc(CO)c1)(C(C)C)C(C#N)=C(N)O2 (centres unmarked) [Compound 74]
Liver microsome assay
  CLint (replicate 2): 67.96 μL/min/mg protein

## COc1cc(Cl)cc(C2(C3CCC3)C(C#N)=C(N)Oc3[nH]nc(C)c32)c1 (centres unmarked) [HK-9]
Human SHMT2
  IC50: 3460 nM

## Cc1n[nH]c2c1C(c1cc(CO)cc(-c3ccccc3)c1)(C(C)C)C(C#N)=C(N)O2 (centres unmarked) [HK-X2]
Su-DHL-4 cells [1]; SU-DHL4, RPMI
  IC70: 5000 nM
Su-DHL-4 cells [1]; formate (1 mM) added
  cell growth (or death) over 48 h: fully cytostatic
Su-DHL-4 cells [1]; formate added and glycine removed
  cell growth (or death) over 48 h: significant cell death
HCT-116 WT cells
  rescue of effects on cell growth by addition of formate: rescued
Su-DHL-4 cells [2]; Su-DHL4, inhibitor alone
  apoptotic fraction of cells: 8%
Su-DHL-4 cells [2]; Su-DHL4, inhibitor in the presence of formate
  apoptotic fraction of cells: 15%
Su-DHL-4 cells [2]; Su-DHL-4, co-treatment with formate
  apoptosis measured by Annexin V surface staining: enhanced
Su-DHL-4 cells [2]; Su-DHL-4, inhibitor alone
  apoptosis measured by Annexin V surface staining: induced apoptosis
8988T cells
  concentration that impairs cell growth: < 100 nM

## Cc1n[nH]c2c1C(c1cc(C#CCCC(N)=O)cc(C(F)(F)F)c1)(C(C)C)C(C#N)=C(N)O2 (centres unmarked) [Compound 11]
LogP Value
  logP: 3.22

## COc1cccc(C2(C(C)C)C(C#N)=C(N)Oc3[nH]nc(C)c32)c1 (centres unmarked) [HK-6]
Human SHMT2
  IC50: 4580 nM

## Cc1n[nH]c2c1C(c1cc(C#N)cc(C#CCCC(=O)O)c1)(C(C)C)C(C#N)=C(N)O2 (centres unmarked) [Compound 68]
LogP Value
  logP: 2.37

## Cc1n[nH]c2c1C(c1cc(C#CCCC(=O)O)cc(C(F)(F)F)c1)(C(C)C)C(C#N)=C(N)O2 (centres unmarked) [Compound 4]
LogP Value
  logP: 3.56

## Cc1n[nH]c2c1C(c1cc(Cl)cc(Cl)c1)(C1CCC1)C(C#N)=C(N)O2 (centres unmarked) [HK-10]
Human SHMT2
  IC50: 1190 nM
Human SHMT1
  IC50: 593 nM

## Cc1n[nH]c2c1C(c1cccc(Cl)c1)(C(C)C)C(C#N)=C(N)O2 (centres unmarked) [HK-7]
Human SHMT2
  IC50: 400 nM

## Cc1n[nH]c2c1C(c1cc(C#CCCC(=O)N[C@@H](CCC(=O)O)C(=O)O)cc(C(F)(F)F)c1)(C(C)C)C(C#N)=C(N)O2 (some centres unmarked) [Compound 69]
LogP Value
  logP: 2.49

## Cc1n[nH]c2c1C(c1cc(Cl)cc(Cl)c1)(C(C)C)C(C#N)=C(N)O2 (centres unmarked) [HK-14]
Human SHMT2
  IC50: 131 nM
Human SHMT1
  IC50: 67 nM

## Cc1n[nH]c2c1C(c1cc(C#CCCCO)cc(C(F)(F)F)c1)(C(C)C)C(C#N)=C(N)O2 (centres unmarked) [Compound 61, 6-amino-4-(3-(5-hydroxypent-1-yn-1-yl)-5-(trifluoromethyl)phenyl)-4-isopropyl-3-methyl-1,4-dihydropyrano[2,3-c]pyrazole-5-carbonitrile]
HCT-116 WT cells; native HCT116
  inhibition of growth (proliferation) of HCT116 cells: inhibited growth
HCT-116 ΔSHMT2 cells
  inhibition of growth of SHMT2 knock-out HCT116 cells versus native: increased potency

## Cc1n[nH]c2c1C(c1cccc(Cl)c1)(C1CCC1)C(C#N)=C(N)O2 (centres unmarked) [HK-3]
Human SHMT2
  IC50: 1190 nM

## COc1cc(Cl)cc(C2(C(C)C)C(C#N)=C(N)Oc3[nH]nc(C)c32)c1 (centres unmarked) [HK-13]
Human SHMT2
  IC50: 500 nM

## Cc1n[nH]c2c1C(c1cc(Cl)cc(C(F)(F)F)c1)(C(C)C)C(C#N)=C(N)O2 (centres unmarked) [HK-15]
Human SHMT2
  IC50: 35 nM
Human SHMT1
  IC50: 20 nM

## Cc1n[nH]c2c1C(c1cc(C#N)cc(C#CCCCO)c1)(C(C)C)C(C#N)=C(N)O2 (centres unmarked) [Compound 71]
LogP Value
  logP: 2.89

## Cc1n[nH]c2c1C(c1cc(Cl)cc(C(F)(F)F)c1)(C1CCC1)C(C#N)=C(N)O2 (centres unmarked) [HK-11]
Human SHMT2
  IC50: 100 nM

## Cc1n[nH]c2c1C(c1cc(C#CCCCN)cc(C(F)(F)F)c1)(C(C)C)C(C#N)=C(N)O2 (centres unmarked) [Compound 8]
LogP Value
  logP: 2.72

## Cc1n[nH]c2c1C(c1cc(N3CCCC3)cc(C(F)(F)F)c1)(C(C)C)C(C#N)=C(N)O2 (centres unmarked) [HK-X1]
Human SHMT2
  IC50: 66 nM
HCT-116 WT cells
  rescue of effects on cell growth by addition of formate: rescued
Human SHMT1
  IC50: 13 nM

## Cc1n[nH]c2c1C(c1cc(C(F)(F)F)cc(C(F)(F)F)c1)(C1CCC1)C(C#N)=C(N)O2 (centres unmarked) [HK-12]
Human SHMT2
  IC50: 168 nM
Human SHMT1
  IC50: 206 nM
